Entries after “also recorded” stand apart in the source; their conditions may differ. Peptide text beside a SMILES is read from it.
Legend:
Type in all cases: cell-based
[1] = tested on: glycosaminoglycan without an acid group; experiment: P.A.S. Alcian blue staining of glycosaminoglycans without acid groups in human skin explants
Experimental: (§1) This study was conducted on thirty six human skin explants obtained from breast plastic surgery.
(§2) All the explants were maintained in a state of survival in a culture medium for eight days. AcSDKP at a concentration of 10^−5 M or 10^−8 M in physiological serum was applied to the explants by topical route every day for one week. On days 2, 4, 6 and 8, three explants from each batch (control, +AcSDKP 10^−5 M+ AcSDKP 10^−8 M) were removed and prepared for histological studies. General morphology was examined and an evaluation of the expression of basal keratin (CK14), undifferentiated keratin (CK19), collagen III, collagen IV, fibronectin and glycosaminoglycan without an acid group was performed.
This effect, clearly visible at D6 and D8, is characterised by a PAS positive increase in the number of fibroblasts in the papillary dermis, especially in the band situated along the dermo-epidermal junction and by increased levels of GAGs in these fibroblasts.

[2] = tested on: human skin explants; experiment: General morphology of human skin explants (histology); conditions: topical daily
Experimental: as §1, §2

[3] = tested on: fibronectin; experiment: Immunolabelling of fibronectin in human skin explants
Experimental: as §1, §2

[4] = tested on: collagen III; experiment: Immunolabelling of collagen III in human skin explants
Experimental: as §1, §2

[5] = tested on: undifferentiated keratin (CK19); experiment: Immunolabelling of keratin 19 in human skin explants
Experimental: as §1, §2

[6] = tested on: basal keratin (CK14); experiment: Immunolabelling of keratin 14 in human skin explants
Experimental: as §1, §2

[7] = tested on: collagen IV; experiment: Immunolabelling of collagen IV in human skin explants; conditions: D6 and D8
Experimental: as §1, §2

[8] = topical daily, human skin explants, immunolabelling

CC(=O)N[C@@H](CO)C(=O)N[C@@H](CC(=O)O)C(=O)N[C@@H](CCCCN)C(=O)N1CCC[C@H]1C(=O)O [AcSDKP, CH3CO-Ser-Asp-Lys-Pro] (Ac-SDKP-OH)
Glycosaminoglycan (GAGs) levels ([1]; 10^-5 M and 10^-8 M, clearly visible at D6 and D8): significant increase in the levels of these compounds in the skin
Glycosaminoglycan (GAGs) expression ([1]; 10^-5 M compared with 10^-8 M): higher level of activity
General morphology: epidermal structure ([2]; 10^-5 M and 10^-8 M, human skin explants): triggers stimulation of the epidermal structure as of D6 of treatment
Increase in epidermal thickness ([2]; 10^-5 M compared with 10^-8 M): increase in epidermal thickness is greater
Fibronectin expression ([3]; 10^-5 M compared with 10^-8 M): greater activity
Fibronectin expression [3, 8]: fibronectin network is denser and has thicker fibres; also recorded: triggers overexpression of this protein along a dermo-epidermal junction as well as in the papillary and reticular dermis
Collagen III expression ([4]; 10^-5 M, D8): very clear overexpression of collagen III in the papillary and reticular dermis
Collagen III levels ([4]; 10^-5 M, six days of treatment): very marked increase in collagen III levels in the papillary dermis along the dermo-epidermal junction
Collagen III level ([4]; 10^-8 M, D8): level of collagen III increases along the dermo-epidermal junction and forms a thicker collagen band
Collagen III expression along the dermo-epidermal junction ([4]; 10^-8 M, six days of treatment, compared with 10^-5 M): less pronounced
Keratin 19 (CK19) expression ([5]; 10^-5 M and 10^-8 M, topical daily, immunolabelling): overexpression of the skin's dermal attachments as of D6 of treatment
Keratin 19 (CK19) expression ([5]; 10^-5 M compared with 10^-8 M): less marked effect
Keratin 14 (CK14) restructuring effect ([6]; 10^-5 M compared with 10^-8 M): restructuring effect is greater
Keratin 14 (CK14) expression [6, 8]: gradual increase in the levels of this protein in the basal and superbasal position as of D4 of treatment
Collagen IV levels in the basal membrane ([7]; 10^-5 M and 10^-8 M): less pronounced than that for type III collagen
Increase in collagen IV levels ([7]; 10^-5 M compared with 10^-8 M): higher

— patent publication US20070259819A1, “Cosmetic Use of at Least Natural Tetrapeptide Ac-Ser-Asp-Lys-Pro or One of Its Analogs as a Skin Anti-Aging and Restructuring Agent” (Centre National De La Recherche Scientfique (CNRS), priority 2004, published 2007)
